In patent publication US5877183A, “Treatment of lipid and glucose metabolism disorders with dopamine and serotonin agonists” (Ergo Research Corporation, priority 1997, dated 1999):

Columns and labels:
[1] = timed administration; cited from earlier work
[2] = cited from earlier work
[3] = two-week treatment of C57BL/6 ob/ob mice (body weight, fat and lean body mass, food consumption, blood glucose, serum free fatty acids); type: in vivo, C57BL/6 ob/ob mice (lacking a functional leptin protein); details: two weeks
Procedure: Different groups (8 mice per group) of 4-8 week old C57BL/6 ob/ob mice (lacking a functional leptin protein) were treated with:
1) vehicle at 1 and 11 hours after light onset (HALO);
2) Buspirone ("Busp"; a 5HT1A agonist) (3 mg/kg) at 11 HALO;
3) DOI (a 5HT2 agonist) (8 mg/kg) at 11 HALO;
4) RU24969 ("RU") (5HT1B agonist) (3 mg/kg) at 11 HALO;
5) bromocriptine ("BC") (12 mg/kg BW) at 1 HALO;
6) BC (12 mg/kg) at 1 HALO plus Buspirone (3 mg/kg) at 11 HALO;
7) BC (12 mg/kg) at 1 HALO plus DOI (8 mg/kg) at 11 HALO;
8) BC (12 mg/kg) at 1 HALO plus RU (3 mg/kg) at 11 HALO;
9) SKF38393 ("SKF") (D1 agonist) (20mg/kg BW) at 1 HALO; and
10) SKF(20 mg/kg) at 1 HALO plus RU (3 mg/kg) at 11 HALO for two weeks. Animals were held on 12-hour daily photoperiods and allowed to feed ad libitum. Food consumption was monitored daily for 3 days before the initiation of treatment throughout the 14-day treatment period. Animals were sacrificed between 1 and 3 HALO on the day following the final treatment and plasma was collected for the analyses of insulin, glucose, and lipids while the carcasses were solubilized in ethanolic KOH and analyzed for protein and lipid content. Blood glucose was measured with an Accu-Chek Advantage glucose meter (Boehringer). Serum insulin was measured with a radioimmunoassay kit (Linco Research) using rat insulin standards. Total triglycerides and free fatty acids were measured with kits from Sigma Diagnostics and Wako Chemicals, respectively. Body weight gain or loss as a result of treatment is depicted in FIG. 1. Fat body mass is depicted in FIG. 2.

[4] = cited from earlier work; remark: listed apart in the source
[5] = in vivo; cited from earlier work

Compound: CC(C)C[C@H]1C(=O)N2CCC[C@H]2[C@]2(O)O[C@](NC(=O)[C@@H]3C=C4c5cccc6[nH]c(Br)c(c56)C[C@H]4N(C)C3)(C(C)C)C(=O)N12 [Bromocriptine, 2-bromo-alpha-ergocriptine]
- body fat stores (effect in words) [1]: reduce body fat stores
- food consumption (effect in words) [1]: without a concomitant reduction in food consumption
- hyperinsulinemia, hyperlipidemia, and glucose intolerance (effect in words) [1]: reduce hyperinsulinemia, hyperlipidemia, and glucose intolerance
- locomotor stimulation and stereotyped behavior responses ([2]; after depletion of endogenous dopamine): blocked by depletion of endogenous dopamine
- responsiveness in dopamine depleted animals given a D1 dopamine receptor agonist ([2]; dopamine depleted animals plus D1 agonist): restored
- body fat stores / fat body mass (effect in words) [3]: ineffective
- body weight gain (effect in words) [3]: ineffective
- food intake / food consumption (effect in words) [3]: ineffective

Compound: COc1cc(CC(C)N)c(OC)cc1I (stereo not drawn) [DOI]
- body fat stores / fat body mass (effect in words) [3]: ineffective
- body weight gain (effect in words) [3]: ineffective
- food intake / food consumption (effect in words) [3]: ineffective

Compound: CC[C@H](C)C(=O)O[C@H]1C[C@@H](C)C=C2C=C[C@H](C)[C@H](CC[C@@H]3C[C@@H](O)CC(=O)O3)[C@H]21 [lovastatin]
- total cholesterol (effect in words) ([4]; in vivo): reduces total cholesterol
- increase in HDL concentrations ([4]; lovastatin (MEVACOR)): 5-10%

Compound: Oc1cc2c(cc1O)C(c1ccccc1)CNCC2 (stereo not drawn) [SKF]
- body weight gain (effect in words) [3]: significant decrease
- food intake / food consumption (effect in words) [3]: significant decrease

Compound: O=C1CC2(CCCC2)CC(=O)N1CCCCN1CCN(c2ncccn2)CC1 [Buspirone]
- body fat stores / fat body mass (effect in words) [3]: ineffective
- body weight gain (effect in words) [3]: ineffective
- food intake / food consumption (effect in words) [3]: ineffective

Compound: COc1ccc2[nH]cc(C3=CCNCC3)c2c1 [RU]
- body weight gain (effect in words) [3]: significant decrease
- food intake / food consumption (effect in words) [3]: significant decrease

Compound: CCOC(=O)C(C)(C)Oc1ccc(Cl)cc1 [clofibrate]
- side effects [5]: nephrotic syndromes, myalgia, nausea, and abdominal pain
